The molecules below were run against GPR84 (Homo sapiens, UniProt Q9NQS5) (assay: GPR84 antagonistic activity, calcium flux (Fluo-4) assay with agonist 6-OAU). Conditions: not given.
Chain of GPR84 (Q9NQS5 whole entry): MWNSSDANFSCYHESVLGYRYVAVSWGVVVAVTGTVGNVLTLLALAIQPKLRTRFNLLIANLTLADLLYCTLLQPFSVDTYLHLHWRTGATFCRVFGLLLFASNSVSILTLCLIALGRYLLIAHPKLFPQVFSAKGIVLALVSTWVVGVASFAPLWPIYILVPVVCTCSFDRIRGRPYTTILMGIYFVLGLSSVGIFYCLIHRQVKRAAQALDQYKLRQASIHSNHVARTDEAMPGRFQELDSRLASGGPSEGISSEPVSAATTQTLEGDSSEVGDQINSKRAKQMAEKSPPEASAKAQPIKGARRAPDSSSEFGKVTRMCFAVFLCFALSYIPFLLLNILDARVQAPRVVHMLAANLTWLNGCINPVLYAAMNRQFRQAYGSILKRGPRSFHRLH
Type: cell-based
Set-up: expressed in transfected cells; host or cells: HEK293
Experimental: The human GPR84 cell line was obtained by transfecting a HEK293 cell line with a plasmid encoding GPR84 and Gα16 proteins. Fluorescent dye Fluo-4AM was purchased from Invitrogen.
Intracellular Ca^2+ ion is a very important second messenger of G protein-coupled receptor signaling pathway. […] Fluo-4 is a Ca^2+ ion-specific fluorescent probe that binds quantitatively to Ca^2+ ions and emits fluorescence.
Detection of receptor inhibitory effect by GPR84 antagonist: After incubated with fluorescent dye Fluo-4, GPR84 cells were incubated with different concentrations of antagonistic compounds for a period of time to occupy the binding site of agonist to GPR84 (antagonistic binding site). A certain concentration of agonist (6-n-octylaminouracil, 6-OAU) was added to compete with the antagonist compound for binding sites. […] The half-inhibitory concentration (IC50) of the compound was calculated by using GraphPad PRISM software.
The above ingredients were weighed and dissolved in ultrapure water. pH was adjusted to 7.4 by using hydrochloric acid or NaOH solution. The mixture was filtered and stored at 4° C. for one month.
The buffer was prepared on site.
The cells were seeded in a 96-well plate at a density of 4×10^4 cells/well. After 24 hours of culture, the culture medium was removed, and 40 μL of Fluo-4AM fluorescent staining solution was added to each well and incubated in a 37° C. incubator for 40 minutes. After the dye was aspirated and discarded, 50 μL of the tested compound was added and incubated at room temperature for 10 minutes.
`COc1cccc2c1Sc1ccccc1C=C2OP(=O)(O)OC1CCOC1` (stereo not shown) [LSX406] showed an IC50 of 1 to 10 µM. For `COc1cccc2c1Sc1ccccc1C=C2OP(=O)(O)Oc1ccc(F)cc1` [LSX430], the IC50 was 1 to 10 µM. Molecule `CCCCCCCCP(=O)(O)OC1=Cc2ccccc2Sc2c(OC)cccc21` [LSX432] has an IC50 of 0.1 to 1 µM. Molecule `COc1ccc(OP(=O)(O)OC2=Cc3ccccc3Sc3c(OC)cccc32)cc1` [LSX442] has an IC50 of 0.1 to 1 µM. Molecule `COc1cccc2c1Sc1ccccc1C=C2OP(=O)(O)Oc1ccccc1C(C)C` [LSX454] has an IC50 of 1 to 10 µM. Molecule `COc1cccc2c1Sc1ccccc1C=C2OP(=O)(O)Oc1ccc([N+](=O)[O-])cc1` [LSX457] has an IC50 of 1 to 10 µM. With `COc1cccc2c1Sc1ccccc1C=C2OP(=O)(O)Oc1cccc2ccccc12` [LSX462a] the IC50 was 0.1 to 1 µM. Work on `COc1cccc2c1Sc1ccccc1C=C2OP(=O)(O)Oc1ccc2ccccc2c1` [LSX462b] yielded an IC50 of 0.1 to 1 µM. `COc1cccc2c1Sc1ccccc1C=C2OP(=O)(O)Oc1cc(C)ccc1C(C)C` [LSX468a] was tested, and the IC50 was 0.1 to 1 µM. With `COc1cccc2c1Sc1ccccc1C=C2OP(=O)(O)Oc1cc(C(C)C)ccc1C` [LSX468b] the IC50 was 0.1 to 1 µM. In the case of `COc1cccc2c1Sc1ccccc1C=C2OP(=O)(O)Oc1cc(Cl)ccc1Cl` [LSX480], the IC50 is reported as 0.1 to 1 µM. Molecule `CCCCCc1ccccc1OP(=O)(O)OC1=Cc2ccccc2Sc2c(OC)cccc21` [LSX482a] has an IC50 of 0.1 to 1 µM. For `CCCCCc1cccc(OP(=O)(O)OC2=Cc3ccccc3Sc3c(OC)cccc32)c1` [LSX482b], the IC50 was < 0.1 µM. For `CCCCCc1ccc(OP(=O)(O)OC2=Cc3ccccc3Sc3c(OC)cccc32)cc1` [LSX482c], the IC50 was 0.1 to 1 µM. Molecule `COc1cccc2c1Sc1ccccc1C=C2OP(=O)(O)Oc1ccc(Br)cc1` [LSX491a] has an IC50 of 0.1 to 1 µM. With `COc1cccc2c1Sc1ccccc1C=C2OP(=O)(O)Oc1c(C(C)C)cccc1C(C)C` [LSX496] the IC50 was 1 to 10 µM. With `COc1cccc2c1Sc1ccccc1C=C2OP(=O)(O)Oc1ccc(Oc2ccccc2)cc1` [LSX504] the IC50 was 1 to 10 µM. For `CCCCCc1cc(CCCCC)cc(OP(=O)(O)OC2=Cc3ccccc3Sc3c(OC)cccc32)c1` [LSX552], the IC50 was 0.1 to 1 µM.

Same assay, conditions: HEK293 cells with GPR84 and Gα16; Fluo-4 calcium signal; agonist 6-OAU around EC80
In the case of `CC1(C)[C@@H]2CC[C@@]1(C)[C@H](OP(=O)(O)OC1=Cc3c(Cl)cccc3Sc3ccccc31)C2` [LSX476g], the IC50 is reported as < 0.1 µM.

Same assay, conditions: HEK293 cells with GPR84 and Gα16; Fluo-4 calcium signal; agonist 6-OAU around EC80; read-out: IC50
In the case of `COc1cccc2c1Sc1ccccc1C=C2OP(=O)(O)N1CCC(C)(C)CC1` [LSX431], the IC50 is reported as 1 to 10 µM.

Same assay, conditions: IC50, HEK293 cells with GPR84 and Gα16; Fluo-4 calcium signal; agonist 6-OAU around EC80
For `CC1(C)[C@@H]2CC[C@@]1(C)[C@H](OP(=O)(O)OC1=Cc3c(Cl)cccc3Sc3ccccc31)C2` (racemic) [LSX476b], the IC50 was < 0.1 µM. In the case of `CC1(C)[C@H]2CC[C@]1(C)[C@H](OP(=O)(O)OC1=Cc3c(Cl)cccc3Sc3ccccc31)C2` (racemic) [LSX476d], the IC50 is reported as 0.1 to 1 µM. For `COc1cccc2c1Sc1ccccc1C=C2OP(=O)(O)OC` [LSX350], the IC50 was 1 to 10 µM. `CCCCCCOP(=O)(O)OC1=Cc2ccccc2Sc2c(OC)cccc21` [LSX420-3] gave an IC50 of 0.1 to 1 µM. `CC1(C)[C@@H]2CC[C@@](C)(C2)[C@@H]1OP(=O)(O)OC1=Cc2ccccc2Oc2ccccc21` [LSX426j] was tested, and the IC50 was 1 to 10 µM. With `COc1cccc2c1Sc1ccccc1C=C2OP(=O)(O)OC1CCCCC1C` (stereo not shown) [LSX432-2a] the IC50 was 1 to 10 µM. For `COc1cccc2c1Sc1ccccc1C=C2OP(=O)(O)OC1CCC(C)CC1` (stereo not shown) [LSX432-2c], the IC50 was 1 to 10 µM. In the case of `COc1cccc2c1Sc1ccccc1C=C2OP(=O)(O)OCCc1ccccc1` [LSX440], the IC50 is reported as 1 to 10 µM. In the case of `CC1(C)[C@H]2CC[C@]1(C)[C@H](OP(=O)(O)OC1=Cc3ccccc3Sc3ccccc31)C2` [LSX442a], the IC50 is reported as 0.1 to 1 µM. `CC1(C)[C@@H]2CC[C@@](C)(C2)[C@@H]1OP(=O)(O)OC1=Cc2ccccc2Sc2ccccc21` [LSX442j] gave an IC50 of 1 to 10 µM. For `COc1cccc2c1Sc1ccccc1C=C2OP(=O)(O)OCC1CC2CCC1C2` (stereo not shown) [LSX444-2], the IC50 was 0.1 to 1 µM. With `COc1cccc2c1Sc1ccccc1C=C2OP(=O)(O)OC1C(C)CCCC1C` (stereo not shown) [LSX446-2] the IC50 was 1 to 10 µM. `CC/C=C\CCCCOP(=O)(O)OC1=Cc2ccccc2Sc2c(OC)cccc21` [LSX446] was tested, and the IC50 was 0.1 to 1 µM. With `CCCCCCCCOP(=O)(O)OC1=Cc2c(Cl)cccc2Sc2ccccc21` [LSX452] the IC50 was 0.1 to 1 µM. Work on `COc1cccc2c1Oc1ccccc1C=C2OP(=O)(O)O[C@@H]1C(C)(C)[C@@H]2CC[C@@]1(C)C2` [LSX456j] yielded an IC50 of 1 to 10 µM. `CC1(C)[C@H]2CC[C@]1(C)[C@H](OP(=O)(O)OC1=Cc3c(F)cccc3Sc3ccccc31)C2` [LSX460a] gave an IC50 of 0.1 to 1 µM. In the case of `CC1(C)[C@@H]2CC[C@@](C)(C2)[C@@H]1OP(=O)(O)OC1=Cc2c(F)cccc2Sc2ccccc21` [LSX460j], the IC50 is reported as 0.1 to 1 µM. For `CCCCCCCCCOP(=O)(O)OC1=Cc2ccccc2Sc2c(OC)cccc21` [LSX462-3], the IC50 was 0.1 to 1 µM. Work on `COc1cccc2c1Sc1ccccc1C=C2OP(=O)(O)OCCCCCCCCF` [LSX466] yielded an IC50 of 1 to 10 µM. `COc1cccc2c1Sc1ccccc1C=C2OP(=O)(O)OC12CC3CC(CC(C3)C1)C2` [LSX470a] gave an IC50 of 0.1 to 1 µM. In the case of `COc1cccc2c1Sc1ccccc1C=C2OP(=O)(O)OC1C2CC3CC(C2)CC1C3` (stereo not shown) [LSX470b], the IC50 is reported as 0.1 to 1 µM. `COc1cccc2c1Sc1ccccc1C=C2OP(=O)(O)OC1CCC(C(C)(C)C)CC1` (stereo not shown) [LSX474-2] was tested, and the IC50 was 0.1 to 1 µM. For `COc1cccc2c1Sc1ccccc1C=C2OP(=O)(O)OC1C(C)(C)CCCC1(C)C` [LSX474-3], the IC50 was 0.1 to 1 µM. In the case of `COc1cccc2c1Sc1ccccc1C=C2OP(=O)(O)O[C@@H]1C[C@H](C)CC[C@H]1C(C)C` [LSX474a], the IC50 is reported as < 0.1 µM. For `COc1cccc2c1Sc1ccccc1C=C2OP(=O)(O)O[C@H]1C[C@@H](C)CC[C@@H]1C(C)C` [LSX474b], the IC50 was < 0.1 µM. In the case of `CC1(C)[C@H]2CC[C@]1(C)[C@H](OP(=O)(O)OC1=Cc3c(Cl)cccc3Sc3ccccc31)C2` [LSX476a], the IC50 is reported as < 0.1 µM. In the case of `CC1(C)[C@@H]2CC[C@@]1(C)[C@@H](OP(=O)(O)OC1=Cc3c(Cl)cccc3Sc3ccccc31)C2` [LSX476c], the IC50 is reported as 0.1 to 1 µM. In the case of `CC1(C)[C@H]2CC[C@]1(C)[C@@H](OP(=O)(O)OC1=Cc3c(Cl)cccc3Sc3ccccc31)C2` [LSX476h], the IC50 is reported as 0.1 to 1 µM. In the case of `COC(=O)CCCCCCCOP(=O)(O)OC1=Cc2ccccc2Sc2c(OC)cccc21` [LSX492], the IC50 is reported as 1 to 10 µM. `COc1cccc2c1Sc1ccccc1C=C2OP(=O)(O)OC12CC3CC(C)(CC(C)(C3)C1)C2` [LSX498] was tested, and the IC50 was 0.1 to 1 µM. Molecule `CC1(C)[C@H]2CC[C@]1(C)[C@H](OP(=O)(O)OC1=Cc3ccccc3Sc3c(OC(F)(F)F)cccc31)C2` [LSX526a] has an IC50 of 0.1 to 1 µM. `CC1(C)[C@@H]2CC[C@@](C)(C2)[C@@H]1OP(=O)(O)OC1=Cc2ccccc2Sc2c(OC(F)(F)F)cccc21` [LSX526j] was tested, and the IC50 was < 0.1 µM. For `COc1cccc2c1Sc1ccccc1C=C2OP(=O)(O)OCCCCCCCCBr` [LSX527], the IC50 was 0.1 to 1 µM. In the case of `CC1CC(C(C)(C)C)C(OP(=O)(O)OC2=Cc3c(Cl)cccc3Sc3ccccc32)C(C(C)(C)C)C1` (stereo not shown) [LSX548], the IC50 is reported as 1 to 10 µM. `COc1cccc2c1Sc1ccccc1C=C2OP(=O)(O)OC12CC3CC(C1)C(Nc1ncnc4[nH]ccc14)C(C3)C2` (stereo not shown) [LSX602] was tested, and the IC50 was < 0.1 µM. For `COc1cccc2c1Sc1ccccc1C=C2OP(=O)(O)OC12CC3CC(C1)C(Nc1c(C(N)=O)cnc4[nH]ccc14)C(C3)C2` (stereo not shown) [LSX644], the IC50 was 1 to 10 µM. `COc1cccc2c1Sc1ccccc1C=C2OP(=O)(O)O[C@@H]1CC[C@@]2(C)C(CC[C@H]3[C@@H]4CC[C@H]([C@H](C)CCC(=O)O)[C@@]4(C)CC[C@@H]32)C1` (stereo partly shown) [LSX694] showed an IC50 of 0.1 to 1 µM. For `COc1cccc2c1Sc1ccccc1C=C2OP(=O)(O)O[C@@H]1CC[C@@]2(C)C(C1)C[C@@H](O)[C@H]1[C@@H]3CC[C@H]([C@H](C)CCC(=O)O)[C@@]3(C)CC[C@@H]12` (stereo partly shown) [LSX710], the IC50 was 0.1 to 1 µM. `COc1cccc2c1Sc1ccccc1C=C2OP(=O)(O)O[C@@H]1CC[C@@]2(C)[C@@H](C1)C[C@@H](O)[C@@H]1[C@@H]2C[C@H](O)[C@]2(C)[C@@H]([C@H](C)CCC(=O)O)CC[C@@H]12` [LSX726] showed an IC50 of 1 to 10 µM. For `COc1cccc2c1Sc1ccccc1C=C2OP(=O)(O)OCCCNC(=O)CC[C@@H](C)[C@H]1CC[C@H]2[C@@H]3[C@H](O)C[C@@H]4C[C@H](O)CC[C@]4(C)[C@H]3C[C@H](O)[C@]12C` [LSX784], the IC50 was 1 to 10 µM.

Same assay, conditions: read-out: IC50
`COc1cccc2c1Sc1ccccc1C=C2OP(=O)(O)OC1COC(C)(C)C1` (stereo not shown) [LSX434-2] showed an IC50 of 1 to 10 µM.

Source: patent US20240342201A1, “ASYMMETRIC GPR84 ANTAGONIST AND USE THEREOF” (priority 2021, published 2024)
